Source: patent US20240199558A1, “2,4,6-TRISUBSTITUTED 1,3,5-TRIAZINES AS MODULATORS OF CX3CR1” (ASTRAZENECA AB, priority 2022, published 2024)

Tests used:
CX3CR1 [1] = molecular target: T1, CX3CR1 (Homo sapiens (Human), UniProt P49238); test: CX3CR1-dependent cell adhesion to recombinant CX3CL1 in human whole blood under flow; format: cell-based; conditions: recombinant full-length CX3CL1
Protocol: Adhesion of cells to recombinant full-length human CX3CL1 was monitored under physiological flow using a Cellix VenaFlux microfluidics platform with connected fluorescent microscope and camera, and using Vena8 Fluoro+ Biochips (Cellix) pre-coated with anti-His monoclonal antibody (25 μg/mL; R&D Systems) and His-tagged full-length CX3CL1 (15 μg/mL; R&D Systems).
CX3CR1-Dependent Cell Adhesion to Recombinant CX3CL1 in Human Whole Blood Under Flow
Human whole blood from healthy volunteers was collected using heparin as anti-coagulant. […] Compound stocks or DMSO vehicle were added to 0.5 or 1.0 ml aliquots of blood such that the final concentration of DMSO was 0.1%, corresponding to a 1000-fold dilution of compound stock. Blood was pre-incubated with compound at room temperature for 60 minutes with gentle shaking. DiOC6 (Invitrogen, 5 μM) or Hoechst 33342 (Invitrogen, 300 μM) dye was subsequently added to fluorescently label cells and enable their detection during the flow adhesion assay. To monitor adhesion, blood was allowed to flow through the channels of a Vena8 Fluoro+ biochip at 2.25 dynes per cm^2 for 3-6 minutes prior to capturing images for quantification. Fluorescent cells adhering to the channels were counted and the mean and/or total count across five to six images in each channel were used for calculating concentration-response curves.

CX3CR1 [2] = molecular target: T1, CX3CR1; test: hCX3CR1 [3H]-AZD8797 competitive binding assay (filter); conditions: CHO-hCX3CR1 membranes, 2 nM [3H]-AZD8797
Outline: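 CHO-hCX3CR1 membranes (9 μg/well) were incubated 2 h at room temperature with 2 nM [3H]-AZD8797 and varying competitor concentrations. Buffer: 25 mM HEPES pH 7.4, 10 mM MgCl2, 1 mM CaCl2, 0.5% BSA, 1% DMSO. Bound ligand was collected by vacuum filtration, washed in ice-cold buffer with 500 mM NaCl, and counted by scintillation.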

CX3CR1 [3] = molecular target: T1, CX3CR1; test: hCX3CR1 [125I]-CX3CL1 displacement binding (SPA); conditions: CHO-hCX3CR1 membranes, [125I]-CX3CL1, SPA beads
Protocol: hCX3CR1 [^125I]-CX3CL1 Displacement Binding (SPA)
CHO-hCX3CR1 membranes (3 μg per well) together with […] [^125I]-CX3CL1 (Perkin Elmer) and different concentrations of competitor compound were incubated together with 400 μg/well WGA coated PVT SPA beads (Perkin Elmer) in 50 mM HEPES (pH 7.4), 10 mM MgCl2, 1 mM EDTA and 0.1% Gelatin in a Greiner polystyrene flat-bottom 384-well plate. The plate was incubated for 20 h at room temperature before the radioactivity was measured using a MicroBeta Trilux reader (PerkinElmer). The DMSO concentration was held constant at 1%.

T1 sequence (P49238 whole entry): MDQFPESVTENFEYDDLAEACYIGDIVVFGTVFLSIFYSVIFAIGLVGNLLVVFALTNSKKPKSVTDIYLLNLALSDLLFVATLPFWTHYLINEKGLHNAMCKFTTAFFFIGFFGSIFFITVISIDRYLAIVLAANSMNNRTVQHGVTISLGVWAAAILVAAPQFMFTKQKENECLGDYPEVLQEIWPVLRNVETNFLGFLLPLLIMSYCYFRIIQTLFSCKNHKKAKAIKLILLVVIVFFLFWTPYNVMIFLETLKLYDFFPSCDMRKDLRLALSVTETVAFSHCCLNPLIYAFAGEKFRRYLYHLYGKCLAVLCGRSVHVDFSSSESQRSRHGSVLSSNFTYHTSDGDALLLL

Compound	IC50 (CX3CR1 [1]) [nM]	IC50 (CX3CR1 [2]) [nM]	IC50 (CX3CR1 [3]) [nM]
CC(C)C[C@H](CO)Nc1nc(C[C@@H](C)c2cccc(Cl)c2F)nc(NS(C)(=O)=O)n1 (single isomer, unassigned) [Example 4, N-(4-((R*)-2-(3-Chloro-2-fluorophenyl)propyl)-6-(((R)-1-hydroxy-4-methylpentan-2-yl)amino)-1,3,5-triazin-2-yl)methanesulfonamide]	499	17	68
CC(C)C[C@H](CO)Nc1nc(C[C@@H](C)c2ccc(F)cc2F)nc(NS(C)(=O)=O)n1 (single isomer, unassigned) [Example 6, N-(4-((R*)-2-(2,4-Difluorophenyl)propyl)-6-(((R)-1-hydroxy-4-methylpentan-2-yl)amino)-1,3,5-triazin-2-yl)methanesulfonamide]	109	96	948
COc1ncc([C@@H](C)Cc2nc(N[C@@H](CO)CC(C)C)nc(NS(C)(=O)=O)n2)cc1Cl (single isomer, unassigned) [Example 10, N-(4-((S*)-2-(5-Chloro-6-methoxypyridin-3-yl)propyl)-6-(((R)-1-hydroxy-4-methylpentan-2-yl)amino)-1,3,5-triazin-2-yl)methanesulfonamide]	–	922	> 20000
CC(C)C[C@H](CO)Nc1nc(C[C@H](C)c2cnc(C3CC3)nc2)nc(NS(C)(=O)=O)n1 (single isomer, unassigned) [Example 11, N-(4-((S*)-2-(2-Cyclopropylpyrimidin-5-yl)propyl)-6-(((R)-1-hydroxy-4-methylpentan-2-yl)amino)-1,3,5-triazin-2-yl)methanesulfonamide]	–	> 10000	> 30000
COc1cc(C)c([C@H](C)Cc2nc(N[C@@H](CO)CC(C)C)nc(NS(C)(=O)=O)n2)cn1 (single isomer, unassigned) [Example 13, N-(4-(((R)-1-Hydroxy-4-methylpentan-2-yl)amino)-6-((R*)-2-(6-methoxy-4-methylpyridin-3-yl)propyl)-1,3,5-triazin-2-yl)methanesulfonamide]	–	614	4250
COc1ncc([C@H](C)Cc2nc(N[C@@H](CO)CC(C)C)nc(NS(C)(=O)=O)n2)cc1C (single isomer, unassigned) [Example 15, N-(4-(((R)-1-Hydroxy-4-methylpentan-2-yl)amino)-6-((R*)-2-(6-methoxy-5-methylpyridin-3-yl)propyl)-1,3,5-triazin-2-yl)methanesulfonamide]	–	252	2990
COc1ncc([C@@H](C)Cc2nc(N[C@@H](CO)CC(C)C)nc(NS(C)(=O)=O)n2)cc1C (single isomer, unassigned) [Example 16, N-(4-(((R)-1-Hydroxy-4-methylpentan-2-yl)amino)-6-((S*)-2-(6-methoxy-5-methylpyridin-3-yl)propyl)-1,3,5-triazin-2-yl)methanesulfonamide]	–	4930	> 30000
COc1ncccc1[C@H](C)Cc1nc(N[C@@H](CO)CC(C)C)nc(NS(C)(=O)=O)n1 (single isomer, unassigned) [Example 17, N-(4-(((R)-1-Hydroxy-4-methylpentan-2-yl)amino)-6-((R*)-2-(2-methoxypyridin-3-yl)propyl)-1,3,5-triazin-2-yl)methanesulfonamide]	–	307	4370
COc1ncccc1[C@@H](C)Cc1nc(N[C@@H](CO)CC(C)C)nc(NS(C)(=O)=O)n1 (single isomer, unassigned) [Example 18, N-(4-(((R)-1-Hydroxy-4-methylpentan-2-yl)amino)-6-((S*)-2-(2-methoxypyridin-3-yl)propyl)-1,3,5-triazin-2-yl)methanesulfonamide]	–	758	16700
CC(C)C[C@H](CO)Nc1nc(C[C@H](C)c2ccnc(Cl)c2)nc(NS(C)(=O)=O)n1 (single isomer, unassigned) [Example 25, N-(4-((S*)-2-(2-Chloropyridin-4-yl)propyl)-6-(((R)-1-hydroxy-4-methylpentan-2-yl)amino)-1,3,5-triazin-2-yl)methanesulfonamide]	–	1350	13500
COc1ccc([C@H](C)Cc2nc(N[C@@H](CO)CC(C)C)nc(NS(C)(=O)=O)n2)c(OC)n1 (single isomer, unassigned) [Example 52, N-(4-((R*)-2-(2,6-Dimethoxypyridin-3-yl)propyl)-6-(((R)-1-hydroxy-4-methylpentan-2-yl)amino)-1,3,5-triazin-2-yl)methanesulfonamide]	–	450	5520
COc1ccc([C@@H](C)Cc2nc(N[C@@H](CO)CC(C)C)nc(NS(C)(=O)=O)n2)c(OC)n1 (single isomer, unassigned) [Example 53, N-(4-((S*)-2-(2,6-Dimethoxypyridin-3-yl)propyl)-6-(((R)-1-hydroxy-4-methylpentan-2-yl)amino)-1,3,5-triazin-2-yl)methanesulfonamide]	–	528	11000
CC(C)C[C@H](CO)Nc1nc(C[C@H](C)c2ccc(F)cc2)nc(NS(C)(=O)=O)n1 (single isomer, unassigned) [Example 80, N-(4-((S*)-2-(4-Fluorophenyl)propyl)-6-(((R)-1-hydroxy-4-methylpentan-2-yl)amino)-1,3,5-triazin-2-yl)methanesulfonamide]	–	2210	4900
CC(C)C[C@H](CO)Nc1nc(C[C@H](C)c2ccc(Cl)cc2F)nc(NS(C)(=O)=O)n1 (single isomer, unassigned) [Example 83, N-(4-((S*)-2-(4-Chloro-2-fluorophenyl)propyl)-6-(((R)-1-hydroxy-4-methylpentan-2-yl)amino)-1,3,5-triazin-2-yl)methanesulfonamide]	1290	156	424
CC(C)C[C@H](CO)Nc1nc(C[C@@H](C)c2ccc(Cl)cc2F)nc(NS(C)(=O)=O)n1 (single isomer, unassigned) [Example 84, N-(4-((R*)-2-(4-Chloro-2-fluorophenyl)propyl)-6-(((R)-1-hydroxy-4-methylpentan-2-yl)amino)-1,3,5-triazin-2-yl)methanesulfonamide]	–	173	348
CC(C)C[C@H](CO)Nc1nc(C[C@@H](C)c2ccc(F)c(F)c2F)nc(NS(C)(=O)=O)n1 (single isomer, unassigned) [Example 88, N-(4-(((R)-1-Hydroxy-4-methylpentan-2-yl)amino)-6-((R*)-2-(2,3,4-trifluorophenyl)propyl)-1,3,5-triazin-2-yl)methanesulfonamide]	115	32	–
CC(C)C[C@H](CO)Nc1nc(C[C@H](C)c2ccc(Cl)cn2)nc(NS(C)(=O)=O)n1 (single isomer, unassigned) [Example 149, N-(4-((S*)-2-(5-Chloropyridin-2-yl)propyl)-6-(((R)-1-hydroxy-4-methylpentan-2-yl)amino)-1,3,5-triazin-2-yl)methanesulfonamide]	> 30000	–	> 30000
CC(C)C[C@H](CO)Nc1nc(C[C@@H](C)c2ccc(Cl)cn2)nc(NS(C)(=O)=O)n1 (single isomer, unassigned) [Example 150, N-(4-((R*)-2-(5-Chloropyridin-2-yl)propyl)-6-(((R)-1-hydroxy-4-methylpentan-2-yl)amino)-1,3,5-triazin-2-yl)methanesulfonamide]	1600	185	1530
CC(C)C[C@H](CO)Nc1nc(CC(C)c2ccnc(Cl)c2)nc(NS(C)(=O)=O)n1 (stereo in doubt) [Example 26, N-(4-((R*)-2-(2-chloropyridin-4-yl)propyl)-6-(((R)-1-hydroxy-4-methylpentan-2-yl)amino)-1,3,5-triazin-2-yl)methanesulfonamide]	–	44	682
CCOc1cc(C(C)Cc2nc(N[C@@H](CO)CC(C)C)nc(NS(C)(=O)=O)n2)ccn1 (stereo partly drawn) [Example 67, N-(4-(2-(2-Ethoxypyridin-4-yl)propyl)-6-(((R)-1-hydroxy-4-methylpentan-2-yl)amino)-1,3,5-triazin-2-yl)methanesulfonamide]	–	359	1830
CCC(Cc1nc(N[C@@H](CO)CC(C)C)nc(NS(C)(=O)=O)n1)c1ccccc1F (stereo partly drawn) [Example 89, N-(4-(2-(2-Fluorophenyl)butyl)-6-(((R)-1-hydroxy-4-methylpentan-2-yl)amino)-1,3,5-triazin-2-yl)methanesulfonamide]	–	250	987
